What was measured:
Type in all cases: in vivo
[1] = system: rats
Experimental: A typical animal model is the drug discrimination procedure in rats using cocaine as the stimulus cue (e.g. D. M. Wood and M. W. Emmett-Oglesby, J. Pharmacol. Exp. Ther., 1986; 237: 120-125; D. Huang and M. C. Wilson, Pharmacol. Biochem. Behav., 1986; 24: 205-210; J. M. Witkin at al., J. Pharmacol. Exp. Ther, 1991; 257: 706-713). Rats are trained to discriminate 10 mg/kg cocaine from saline in a two-lever discrimination procedure. Compounds which substitute for cocaine produce a dose-dependent increase in cocaine-appropriate responding, i.e. in selecting the cocaine-paired lever.
1-[4-(5-cyanoindol-3-yl)butyl]-4-(2-carbamoyl-benzofuran-5-yl)-piperazine or one of its physiologically acceptable salts, in particular 1-[4-(5-cyanoindol-3-yl)butyl]-4-(2-carbamoyl-benzofuran-5-yl)-piperazine hydrochloride, dose-dependently but only partially substituted for cocaine (maximally 60% choise of cocaine-paired lever at 50 mg/kg p.o.).

[2] = system: mice or rats; assay: Hyperactivity induced by a mixture of dexamphetamine and chlordiazepoxide (model of mania/bipolar disorders); details: compared with lithium and valproate
Excerpt: A typical animal model of mania/bipolar disorders is the hyperactivity induced by a mixture of dexamphetamine and chlordiazepoxide according to A. L. Vale and F. Ratcliffe, Psychopharmacology, 1987; 91: 352-355, and B. J. Cao and N. A. Peng, Eur. J. Pharmacol., 1993; 237: 177-181. The dexamphetamine-chlordiazepoxide mixture induces strong hyperactivity in mice or rats.

[3] = Cumulative Food Intake / development of body weight, rats or mice; details: free access to food
Experimental: A typical animal model for eating disorders and/or obesity and/or anorexia is named Cumulative Food Intake according to H. C. Jackson, A. M, Needham, L. J. Hutchins, S. E. Mazurkiewicz, D. J. Heal, Br. J. Pharmacol., 1997, 121: 1758-1762, which can be utilized in various species. Usually, rats or mice are given free access to food, and the development of body weight is measured over time. The test can be performed in both starved and non-starved rats or mice. Moreover, chronic or acute administration of a medication can be investigated.
Thus, differential effects on body weight indicating therapeutic efficacy in either obesity or anorexia depending on the dose range used are evident.

[4] = system: mice; assay: Light-Dark Choice Test (model for generalized anxiety disorders); details: oral dose of 10 mg/kg, 5 min
Experimental: A typical model for generalized anxiety disorders is the Light-Dark Chaise Test […] according to J. N. Crawly, Pharmacol. Biochem Behav. 1981,15: 695-699.
The light-dark choise apparatus consists of two connected boxes with one box darkened and the other one highly illuminated. A mouse is placed in one box, and the time spent in lit box and the number of transitions between boxes are measured over a period of 5 min. Normal mice only have low numbers of entries to the lit compartment and spent most time in the dark compartment.
1-[4-(5-cyanoindol-3-yl)butyl]-4-(2-carbamoyl-benzofuran-5-yl)-piperazine or one of its physiologically acceptable salts, in particular 1-[4-(5-cyanoindol-3-yl)butyl]-4-(2-carbamoyl-benzofuran-5-yl)-piperazine hydrochloride, following oral application dose -dependently increase the number of transitions and time spent in lit compartment. For example, an oral dose of 10 mg/kg of 1-[4-(5-cyanoindol-3-yl)butyl]-4-(2-carbamoyl-benzofuran-5-yl)-piperazine hydrochloride increased the number of transitions by 73% and time spent in lit compartment by 31%.

[5] = Abdominal constriction (writhing) test; details: 30 mg/kg p.c.
Experimental: Rapid procedures to test pain-relieving properties of drugs are the abdominal constriction (writhing) test according to E. Siegmund et all., Proc. Soc. Exp. Biol. Med. 1957, 95: 729-731 and the intradermal formalin test according to S. Hunskaar et al., J. Neurosci. Meth. 1985, 14: 69-76. For example, 1-[4-(5-cyanoindol-3-y1)butyl]-4-(2-carbamoyl-benzofuran-5-yl)-piperazine hydrochloride at 30 mg/kg p.c. reduced abdominal contrictions by 82%, and 10 mg/kg p.o. reduced the formalin-induced pain response by 79%.

[6] = system: mice; assay: Marble Burying Test (model for OCSD including OCD); details: 3 mg/kg, subcutaneous application
Experimental: A typical model for OCSD including OCD is the Marble Burying Test according to Y. Ichimaru, T. Egawa, A. Sawa, Jpn. J. Pharmacol. 1995, 68: 65-70.
The apparatus consists of an open cubic box with 25 clean glass marbles evenly spaced on sawdust. Individual mice are placed in the test box, and the number of glass marbles left uncovered after 20 minutes are counted. 1-[4-(5-cyanoindol-3-yl)butyl]-4-(2-carbamoyl-benzofuran-5-yl)-piperazine or one of its physiologically acceptable salts, in particular 1-[4-(5-cyanoindol-3-yl)butyl]-4-(2-carbamoyl-benzofuran-5-yl)-piperazine hydrochloride, following subcutaneous application inhibits mable burying in mice dose-dependently. For example, a dose of 3 mg/kg of 1-[4-(5-cyanoindol-3-yl)butyl]-4-(2-carbamoyl-benzofuran-5-yl)-piperazine hydrochloride nearly completely (92%) inhibits marble burying; equieffective doses of conventional serotonin reuptake inhibitors are e.g. 20 mg/kg for fluvoxamine or 17 mg/kg for fluoxetine and an equieffective dose of the 5-HT1A agonist ipsapirone is 10 mg/kg.

[7] = system: mice; assay: Four Plate Test (model for acute stress indication); details: oral dose of 3 mg/kg, five minute test period
Experimental: A typical model for acute stress indication is the Four Plate Test according to C. Aron, P. Simon, C. Larousse, J. R. Boissier, Neuropharmacology 1971, 10: 459-469.
The apparatus consists of small box with a floor made up of four metal plates. Each time the mouse crosses from one plate to another, it is given a brief electric footshock reducing the amount of exploratory behavior. The number of punished crossings from one plate to another (i.e. number of shocks accepted by the animal) is recorded during a five minute test period. Normal mice make only few punished crossings, i.e. accept only a few footshocks.
1-[4-(5-cyanoindol-3-yl)butyl]-4-(2-carbamoyl-benzofuran-5-yl)-piperazine hydrochloride following and oral dose of 3 mg/kg increased the number of punished crossings by 41%.

## Cl.N#Cc1ccc2[nH]cc(CCCCN3CCN(c4ccc5oc(C(N)=O)cc5c4)CC3)c2c1 [1-[4-(5-cyanoindol-3-yl)butyl]-4-(2-carbamoyl-benzofuran-5-yl)-piperazine hydrochloride]
[1]; rat, in vivo
  stimulus drug property by itself (abuse potential): does not serve as a stimulus drug by itself
[1]; rats trained on 10 mg/kg cocaine vs saline, 50 mg/kg p.o.
  maximal choice of cocaine-paired lever (partial substitution for cocaine): 60%
[2]
  inhibition of hyperactivity induced by the dexamphetamine-chlordiazepoxide mixture: to the same degree as do lithium and valproate
[3]; orally for 4 consecutive days, lower doses of up to 50 mg/kg
  body weight at lower doses: increased body weight
[3]; orally up to 360 mg/kg for 4 consecutive days, higher doses
  development of body weight at higher doses: reduced development of body weight
[4]
  increase of number of transitions: 73%
  increase of time spent in lit compartment: 31%
[5]
  reduction of abdominal constrictions: 82%
[6]
  inhibition of marble burying: 92%
[7]
  increase of number of punished crossings: 41%
